Measurements published in ChEMBL document CHEMBL3885881, “DrugMatrix”.

Species: Rattus norvegicus
Test: DrugMatrix - Regimen: Daily Repeat
Assay type: toxicity, organism-based, Sprague-Dawley
Parameters: regimen Daily Repeat, gender Male, age 6-8 weeks
Details: in vivo, po, route oral GAVAGE, […]; for ABSOLUTE BASOPHIL / ABSOLUTE EOSINOPHIL / ABSOLUTE LYMPHOCYTE / ABSOLUTE MONOCYTE / ABSOLUTE SEGMENTED NEUTROPHIL / BASOPHIL / EOSINOPHIL / ERYTHROCYTE COUNT / HEMATOCRIT / HEMOGLOBIN / LEUKOCYTE COUNT / LYMPHOCYTE / MEAN CORPUSCULAR HEMOGLOBIN / MEAN CORPUSCULAR HEMOGLOBIN CONCENTRATION / MEAN CORPUSCULAR VOLUME / MONOCYTE / NEUTROPHIL / NUCLEATED RED BLOOD CELLS / PLATELET COUNT: tissue Blood; for ALANINE AMINOTRANSFERASE / ALBUMIN / ALKALINE PHOSPHATASE / ASPARTATE AMINOTRANSFERASE / BLOOD UREA NITROGEN / CARBON DIOXIDE / CHLORIDE / CHOLESTEROL / CREATINE PHOSPHOKINASE / CREATININE / GLUCOSE / LACTATE DEHYDROGENASE / LIPASE / PHOSPHORUS / POTASSIUM / SODIUM / TOTAL BILIRUBIN / TOTAL PROTEIN / URIC ACID: tissue Plasma
[1] = 29 mg/kg, 120 h, dose level Low, time 5 day
[2] = 450 mg/kg, 72 h, dose level High, time 3 day
[3] = 450 mg/kg, 120 h, dose level High, time 5 day

C[C@@H]1CN(c2c(F)c(N)c3c(=O)c(C(=O)O)cn(C4CC4)c3c2F)C[C@H](C)N1 [SPARFLOXACIN]
ABSOLUTE BASOPHIL [1]: 0 CELLS/uL | ABSOLUTE EOSINOPHIL [1]: 69.33 CELLS/uL | ABSOLUTE LYMPHOCYTE [1]: 8350.33 CELLS/uL | ABSOLUTE MONOCYTE [1]: 91.33 CELLS/uL | ABSOLUTE SEGMENTED NEUTROPHIL [1]: 455.67 CELLS/uL | BASOPHIL [1]: 0% | EOSINOPHIL [1]: 0.67% | ERYTHROCYTE COUNT [1]: 5.79 x10E6/uL | HEMATOCRIT [1]: 35.13% | HEMOGLOBIN [1]: 13.97 G/DL | LEUKOCYTE COUNT [1]: 8.97 x10E3/uL | LYMPHOCYTE [1]: 93% | MEAN CORPUSCULAR HEMOGLOBIN [1]: 24.13 pg | MEAN CORPUSCULAR HEMOGLOBIN CONCENTRATION [1]: 39.73 G/DL | MEAN CORPUSCULAR VOLUME [1]: 60.73 fL | MONOCYTE [1]: 1% | NEUTROPHIL [1]: 5.33% | NUCLEATED RED BLOOD CELLS [1]: 0 /100WBC | PLATELET COUNT [1]: 1048 x10E3/uL | ALANINE AMINOTRANSFERASE [1]: 62 u/L | ALBUMIN [1]: 4.03 G/DL | ALKALINE PHOSPHATASE [1]: 251.67 u/L | ASPARTATE AMINOTRANSFERASE [1]: 82 u/L | BLOOD UREA NITROGEN [1]: 13.33 mg/dL | CARBON DIOXIDE [1]: 33 mmol/L | CHLORIDE [1]: 98.33 MEQ/L | CHOLESTEROL [1]: 65.67 mg/dL | CREATINE PHOSPHOKINASE [1]: 381.67 u/L | CREATININE [1]: 0.18 mg/dL | GLUCOSE [1]: 147.33 mg/dL | LACTATE DEHYDROGENASE [1]: 161.33 u/L | LIPASE [1]: 12 u/L | PHOSPHORUS [1]: 10.9 mg/dL | POTASSIUM [1]: 6.43 MEQ/L | SODIUM [1]: 144.2 MEQ/L | TOTAL BILIRUBIN [1]: 0.13 mg/dL | TOTAL PROTEIN [1]: 6 G/DL | URIC ACID [1]: 0.77 mg/dL | ABSOLUTE BASOPHIL [2]: 0 CELLS/uL | ABSOLUTE EOSINOPHIL [2]: 0 CELLS/uL | ABSOLUTE LYMPHOCYTE [2]: 14211.67 CELLS/uL | ABSOLUTE MONOCYTE [2]: 0 CELLS/uL | ABSOLUTE SEGMENTED NEUTROPHIL [2]: 1355 CELLS/uL | BASOPHIL [2]: 0% | EOSINOPHIL [2]: 0% | ERYTHROCYTE COUNT [2]: 5.74 x10E6/uL | HEMATOCRIT [2]: 34.87% | HEMOGLOBIN [2]: 13.93 G/DL | LEUKOCYTE COUNT [2]: 15.57 x10E3/uL | LYMPHOCYTE [2]: 91.33% | MEAN CORPUSCULAR HEMOGLOBIN [2]: 24.3 pg | MEAN CORPUSCULAR HEMOGLOBIN CONCENTRATION [2]: 40 G/DL | MEAN CORPUSCULAR VOLUME [2]: 60.77 fL | MONOCYTE [2]: 0% | NEUTROPHIL [2]: 8.67% | NUCLEATED RED BLOOD CELLS [2]: 0 /100WBC | PLATELET COUNT [2]: 1148.33 x10E3/uL | ALANINE AMINOTRANSFERASE [2]: 55.33 u/L | ALBUMIN [2]: 3.93 G/DL | ALKALINE PHOSPHATASE [2]: 277.33 u/L | ASPARTATE AMINOTRANSFERASE [2]: 69.33 u/L | BLOOD UREA NITROGEN [2]: 12 mg/dL | CARBON DIOXIDE [2]: 31.67 mmol/L | CHLORIDE [2]: 101 MEQ/L | CHOLESTEROL [2]: 72.33 mg/dL | CREATINE PHOSPHOKINASE [2]: 173 u/L | CREATININE [2]: 0.21 mg/dL | GLUCOSE [2]: 159.67 mg/dL | LACTATE DEHYDROGENASE [2]: 146 u/L | LIPASE [2]: 10.67 u/L | PHOSPHORUS [2]: 10.6 mg/dL | POTASSIUM [2]: 6.2 MEQ/L | SODIUM [2]: 143.4 MEQ/L | TOTAL BILIRUBIN [2]: 0.17 mg/dL | TOTAL PROTEIN [2]: 5.73 G/DL | URIC ACID [2]: 1.3 mg/dL | ABSOLUTE BASOPHIL [3]: 0 CELLS/uL | ABSOLUTE EOSINOPHIL [3]: 0 CELLS/uL | ABSOLUTE LYMPHOCYTE [3]: 8740 CELLS/uL | ABSOLUTE MONOCYTE [3]: 96.67 CELLS/uL | ABSOLUTE SEGMENTED NEUTROPHIL [3]: 396.67 CELLS/uL | BASOPHIL [3]: 0% | EOSINOPHIL [3]: 0% | ERYTHROCYTE COUNT [3]: 5.14 x10E6/uL | HEMATOCRIT [3]: 33.83% | HEMOGLOBIN [3]: 13.17 G/DL | LEUKOCYTE COUNT [3]: 9.23 x10E3/uL | LYMPHOCYTE [3]: 94.67% | MEAN CORPUSCULAR HEMOGLOBIN [3]: 25.83 pg | MEAN CORPUSCULAR HEMOGLOBIN CONCENTRATION [3]: 38.93 G/DL | MEAN CORPUSCULAR VOLUME [3]: 66.27 fL | MONOCYTE [3]: 1% | NEUTROPHIL [3]: 4.33% | NUCLEATED RED BLOOD CELLS [3]: 0 /100WBC | PLATELET COUNT [3]: 1047.33 x10E3/uL | ALANINE AMINOTRANSFERASE [3]: 67.33 u/L | ALBUMIN [3]: 4.03 G/DL | ALKALINE PHOSPHATASE [3]: 374 u/L | ASPARTATE AMINOTRANSFERASE [3]: 88.67 u/L | BLOOD UREA NITROGEN [3]: 11 mg/dL | CARBON DIOXIDE [3]: 30 mmol/L | CHLORIDE [3]: 97.67 MEQ/L | CHOLESTEROL [3]: 86 mg/dL | CREATINE PHOSPHOKINASE [3]: 412.67 u/L | CREATININE [3]: 0.19 mg/dL | GLUCOSE [3]: 177.67 mg/dL | LACTATE DEHYDROGENASE [3]: 159.67 u/L | LIPASE [3]: 10.33 u/L | PHOSPHORUS [3]: 12.17 mg/dL | POTASSIUM [3]: 5.6 MEQ/L | SODIUM [3]: 141 MEQ/L | TOTAL BILIRUBIN [3]: 0.1 mg/dL | TOTAL PROTEIN [3]: 5.93 G/DL | URIC ACID [3]: 1 mg/dL
